In PubChem BioAssay (NCI):
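Protocol summary: plate cells (96-well), add compound at 5 concentrations, incubate 48 h, interpolate endpoints linearly. GI50: concentration for 50% inhibition of growth. TGI denotes the concentration required for complete inhibition of growth.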

Columns and labels:
Assay in all cases: DTP human tumour cell line panel, 48 h; in the data active = GI50 below about 0.43 µM; inactive = the rest
NCI-H226 lung = test system: NCI-H226 lung
SW-620 colon = test system: SW-620 colon
SNB-19 CNS = test system: SNB-19 CNS
LOX IMVI melanoma = test system: LOX IMVI melanoma
OVCAR-3 ovarian = test system: OVCAR-3 ovarian
SK-MEL-2 melanoma = test system: SK-MEL-2 melanoma
OVCAR-8 ovarian = test system: OVCAR-8 ovarian
NCI-H460 lung = test system: NCI-H460 lung
KM12 colon = test system: KM12 colon
UO-31 renal = test system: UO-31 renal
IGROV1 ovarian = test system: IGROV1 ovarian
ACHN renal = test system: ACHN renal
HCT-116 colon = test system: HCT-116 colon
MOLT-4 leukemia = test system: MOLT-4 leukemia
HCT-15 colon = test system: HCT-15 colon
MDA-MB-435 = test system: MDA-MB-435
SR leukemia = test system: SR leukemia
SF-268 CNS = test system: SF-268 CNS
OVCAR-4 ovarian = test system: OVCAR-4 ovarian
T-47D breast = test system: T-47D breast
HS 578T breast = test system: HS 578T breast
SF-295 CNS = test system: SF-295 CNS
A549 NSCLC = test system: A549 NSCLC
EKVX NSCLC = test system: EKVX NSCLC
MDA-N = test system: MDA-N
U251 CNS = test system: U251 CNS
MALME-3M melanoma = test system: MALME-3M melanoma
DU-145 prostate = test system: DU-145 prostate
SK-MEL-5 melanoma = test system: SK-MEL-5 melanoma
K-562 leukemia = test system: K-562 leukemia
UACC-257 melanoma = test system: UACC-257 melanoma
OVCAR-5 ovarian = test system: OVCAR-5 ovarian
786-0 renal = test system: 786-0 renal
HCC-2998 colon = test system: HCC-2998 colon
SF-539 CNS = test system: SF-539 CNS
RPMI-8226 leukemia = test system: RPMI-8226 leukemia
UACC-62 melanoma = test system: UACC-62 melanoma
MCF7 breast = test system: MCF7 breast
TK-10 renal = test system: TK-10 renal
HT29 colon = test system: HT29 colon
CCRF-CEM leukemia = test system: CCRF-CEM leukemia
MDA-MB-231 breast = test system: MDA-MB-231 breast
NCI/ADR-RES ovarian = test system: NCI/ADR-RES ovarian
NCI-H23 lung = test system: NCI-H23 lung
HOP-62 NSCLC = test system: HOP-62 NSCLC
NCI-H522 lung = test system: NCI-H522 lung
HL-60(TB) leukemia = test system: HL-60(TB) leukemia
SN12C renal = test system: SN12C renal
SK-MEL-28 melanoma = test system: SK-MEL-28 melanoma
COLO 205 colon = test system: COLO 205 colon
PC-3 prostate = test system: PC-3 prostate
RXF 393 renal = test system: RXF 393 renal
M14 melanoma = test system: M14 melanoma
CAKI-1 renal = test system: CAKI-1 renal
A498 renal = test system: A498 renal
SK-OV-3 ovarian = test system: SK-OV-3 ovarian
HOP-92 NSCLC = test system: HOP-92 NSCLC
SNB-75 CNS = test system: SNB-75 CNS
BT-549 breast = test system: BT-549 breast

CNc1ccc(S(=O)Nc2ccccc2)cc1 (configuration not stated)
83.5 µM: TGI (COLO 205 colon)
81.3 µM: TGI (UACC-62 melanoma)
96.7 µM: TGI (NCI-H522 lung)
91.1 µM: TGI (SK-MEL-5 melanoma)
> 100 µM: TGI (NCI-H226 lung) | TGI (SW-620 colon) | TGI (SNB-19 CNS) | TGI (LOX IMVI melanoma) | TGI (OVCAR-3 ovarian) | TGI (SK-MEL-2 melanoma) | TGI (OVCAR-8 ovarian) | TGI (NCI-H460 lung) | TGI (KM12 colon) | TGI (UO-31 renal) | TGI (IGROV1 ovarian) | TGI (ACHN renal) | TGI (HCT-116 colon) | TGI (MOLT-4 leukemia) | TGI (HCT-15 colon) | TGI (MDA-MB-435) | TGI (SR leukemia) | TGI (SF-268 CNS) | TGI (OVCAR-4 ovarian) | TGI (HS 578T breast) | TGI (SF-295 CNS) | TGI (A549 NSCLC) | TGI (EKVX NSCLC) | TGI (MDA-N) | TGI (U251 CNS) | TGI (MALME-3M melanoma) | TGI (DU-145 prostate) | TGI (K-562 leukemia) | TGI (UACC-257 melanoma) | TGI (OVCAR-5 ovarian) | TGI (786-0 renal) | TGI (HCC-2998 colon) | TGI (SF-539 CNS) | TGI (RPMI-8226 leukemia) | TGI (MCF7 breast) | TGI (TK-10 renal) | TGI (HT29 colon) | TGI (CCRF-CEM leukemia) | TGI (MDA-MB-231 breast) | TGI (NCI/ADR-RES ovarian) | TGI (NCI-H23 lung) | TGI (HOP-62 NSCLC) | TGI (HL-60(TB) leukemia) | TGI (SN12C renal) | TGI (SK-MEL-28 melanoma)
49.5 µM: TGI (T-47D breast)

CC1=C2C(=O)c3ccccc3C(=O)[C@H]2C[C@@H](N2CCCCCC2=O)O1
71.2 µM: TGI (HT29 colon)
32.3 µM: TGI (DU-145 prostate)
57 µM: TGI (EKVX NSCLC)
31.1 µM: TGI (NCI-H23 lung)
50.6 µM: TGI (U251 CNS)
51.7 µM: TGI (ACHN renal)
30.4 µM: TGI (OVCAR-5 ovarian)
31.4 µM: TGI (HCC-2998 colon)
> 100 µM: TGI (NCI-H226 lung) | TGI (HS 578T breast) | TGI (A498 renal) | TGI (SK-OV-3 ovarian)
29.7 µM: TGI (MDA-MB-435)
33.3 µM: TGI (NCI-H460 lung) | TGI (UO-31 renal)
30.7 µM: TGI (KM12 colon) | TGI (IGROV1 ovarian)
37.7 µM: TGI (TK-10 renal)
53.5 µM: TGI (MDA-MB-231 breast)
55.9 µM: TGI (RXF 393 renal)
33.7 µM: TGI (SF-539 CNS)
35.7 µM: TGI (SK-MEL-28 melanoma)
25.5 µM: TGI (MALME-3M melanoma)
45.1 µM: TGI (SNB-75 CNS)
38.9 µM: TGI (NCI-H522 lung)
36 µM: TGI (HOP-92 NSCLC)
38.2 µM: TGI (OVCAR-3 ovarian)
47.5 µM: TGI (HCT-15 colon)
29.4 µM: TGI (MDA-N)
46.3 µM: TGI (HL-60(TB) leukemia)
32.1 µM: TGI (OVCAR-4 ovarian)
31.2 µM: TGI (UACC-257 melanoma)
29.6 µM: TGI (SK-MEL-5 melanoma)
33 µM: TGI (HOP-62 NSCLC)
28.8 µM: TGI (M14 melanoma)
25.7 µM: TGI (SR leukemia)
35.5 µM: TGI (CAKI-1 renal)
40.3 µM: TGI (OVCAR-8 ovarian)
33.1 µM: TGI (SW-620 colon)
42.3 µM: TGI (T-47D breast)
58.5 µM: TGI (MOLT-4 leukemia)
49.8 µM: TGI (NCI/ADR-RES ovarian)
39.2 µM: TGI (SNB-19 CNS)
20.3 µM: TGI (CCRF-CEM leukemia)
37.4 µM: TGI (UACC-62 melanoma)
34.5 µM: TGI (SN12C renal)
35.6 µM: TGI (SF-295 CNS)
36.3 µM: TGI (SF-268 CNS)
32.7 µM: TGI (786-0 renal)
39.7 µM: TGI (A549 NSCLC)
44.4 µM: TGI (PC-3 prostate)
35.4 µM: TGI (RPMI-8226 leukemia)
40 µM: TGI (SK-MEL-2 melanoma)
44.5 µM: TGI (LOX IMVI melanoma)
53.4 µM: TGI (K-562 leukemia)
32.2 µM: TGI (COLO 205 colon)

Cn1cnc([N+](=O)[O-])c1Sc1nc(N)nc2nc[nH]c12
> 66.3 µM: TGI (HCC-2998 colon)
> 90.5 µM: TGI (NCI-H522 lung)
> 74.5 µM: TGI (COLO 205 colon)
> 91.7 µM: TGI (RXF 393 renal)
22.4 µM: TGI (SK-MEL-5 melanoma)
> 100 µM: TGI (PC-3 prostate) | TGI (NCI-H226 lung) | TGI (SW-620 colon) | TGI (SNB-19 CNS) | TGI (LOX IMVI melanoma) | TGI (OVCAR-3 ovarian) | TGI (SK-MEL-2 melanoma) | TGI (OVCAR-8 ovarian) | TGI (NCI-H460 lung) | TGI (BT-549 breast) | TGI (KM12 colon) | TGI (UO-31 renal) | TGI (IGROV1 ovarian) | TGI (ACHN renal) | TGI (HCT-116 colon) | TGI (MOLT-4 leukemia) | TGI (HCT-15 colon) | TGI (M14 melanoma) | TGI (MDA-MB-435) | TGI (SR leukemia) | TGI (SF-268 CNS) | TGI (OVCAR-4 ovarian) | TGI (T-47D breast) | TGI (HS 578T breast) | TGI (CAKI-1 renal) | TGI (SF-295 CNS) | TGI (A549 NSCLC) | TGI (EKVX NSCLC) | TGI (U251 CNS) | TGI (MALME-3M melanoma) | TGI (DU-145 prostate) | TGI (K-562 leukemia) | TGI (UACC-257 melanoma) | TGI (OVCAR-5 ovarian) | TGI (786-0 renal) | TGI (A498 renal) | TGI (SF-539 CNS) | TGI (SK-OV-3 ovarian) | TGI (HOP-92 NSCLC) | TGI (MCF7 breast) | TGI (TK-10 renal) | TGI (HT29 colon) | TGI (CCRF-CEM leukemia) | TGI (SNB-75 CNS) | TGI (MDA-MB-231 breast) | TGI (NCI/ADR-RES ovarian) | TGI (NCI-H23 lung) | TGI (HOP-62 NSCLC) | TGI (HL-60(TB) leukemia) | TGI (SN12C renal) | TGI (SK-MEL-28 melanoma)
> 94 µM: TGI (RPMI-8226 leukemia)
inactive: GI50 (PC-3 prostate) 7.91 µM | GI50 (NCI-H226 lung) 7.5 µM | GI50 (SW-620 colon) 7.43 µM | GI50 (SNB-19 CNS) > 100 µM | GI50 (LOX IMVI melanoma) 0.488 µM | GI50 (OVCAR-3 ovarian) 4.65 µM | GI50 (SK-MEL-2 melanoma) 6.16 µM | GI50 (OVCAR-8 ovarian) 3.68 µM | GI50 (NCI-H460 lung) 2.25 µM | GI50 (BT-549 breast) 5.08 µM | GI50 (KM12 colon) 3.94 µM | GI50 (UO-31 renal) 4.71 µM | GI50 (RXF 393 renal) 5.09 µM | GI50 (IGROV1 ovarian) 14 µM | GI50 (ACHN renal) 10 µM | GI50 (HCT-116 colon) 2.71 µM | GI50 (MOLT-4 leukemia) 3.55 µM | GI50 (HCT-15 colon) 5.11 µM | GI50 (M14 melanoma) 1.28 µM | GI50 (MDA-MB-435) 3.31 µM | GI50 (SR leukemia) 0.682 µM | GI50 (SF-268 CNS) 2.39 µM | GI50 (OVCAR-4 ovarian) 4.38 µM | GI50 (T-47D breast) 8.57 µM | GI50 (HS 578T breast) 14.5 µM | GI50 (CAKI-1 renal) 2.72 µM | GI50 (SF-295 CNS) 0.635 µM | GI50 (A549 NSCLC) 13.1 µM | GI50 (EKVX NSCLC) 3.9 µM | GI50 (U251 CNS) 23 µM | GI50 (MALME-3M melanoma) 13 µM | GI50 (DU-145 prostate) 2.91 µM | GI50 (SK-MEL-5 melanoma) 3.89 µM | GI50 (K-562 leukemia) 4.2 µM | GI50 (UACC-257 melanoma) 8.38 µM | GI50 (OVCAR-5 ovarian) 4.48 µM | GI50 (786-0 renal) 2.04 µM | GI50 (A498 renal) > 23.7 µM | GI50 (HCC-2998 colon) 3.79 µM | GI50 (SF-539 CNS) 3.15 µM | GI50 (RPMI-8226 leukemia) 3.52 µM | GI50 (UACC-62 melanoma) 2.96 µM | GI50 (SK-OV-3 ovarian) 0.727 µM | GI50 (HOP-92 NSCLC) 3.1 µM | GI50 (MCF7 breast) 2.47 µM | GI50 (TK-10 renal) 5.75 µM | GI50 (HT29 colon) 5.19 µM | GI50 (CCRF-CEM leukemia) 3.01 µM | GI50 (SNB-75 CNS) 1.08 µM | GI50 (MDA-MB-231 breast) 4.88 µM | GI50 (NCI/ADR-RES ovarian) 2.17 µM | GI50 (NCI-H23 lung) 5.61 µM | GI50 (HOP-62 NSCLC) 1.22 µM | GI50 (NCI-H522 lung) 3.56 µM | GI50 (HL-60(TB) leukemia) 5.69 µM | GI50 (SN12C renal) 6.7 µM | GI50 (SK-MEL-28 melanoma) > 42.5 µM | GI50 (COLO 205 colon) 15 µM
25.7 µM: TGI (UACC-62 melanoma)
